Read-outs that look alike come from different tables or passages of the source.
Legend:
[1] = system: HeLa (cervix adenoma cancer cell); assay: WST-1 cytotoxicity, HeLa; format: cell-based, human
Experimental: (§1) Cancer and normal cell lines were purchased from ATCC and stored in liquid nitrogen. HT-29 (colon adenoma cancer), HeLa (cervix adenoma cancer cell), MDA-MB-231 (breast adenoma cancer cell), HEK-293 (embryonic kidney epithelial cell) and PNT-1A (normal prostate cells) cell lines were incubated in DMEM: F-12 and RPMI-1640, including 10% foetal bovine serum (FBS), 100 µg/mL streptomycin/100 IU/mL penicillin, at 37 °C in an incubator containing 5% CO2, 95% air in a humid atmosphere.
(§2) The cytotoxic effects of the substances were evaluated with WST-1 kits (Roche, Germany) in accordance with the manufacturer’s protocols. The cells were planted in 96-well plates (10^4 cells in each well). After incubation for 24 h, the media were discarded and the substances and 5-Fu as the control drug, at doses of 0, 2.5, 5, 10, 25, 50, 100 and 200 µM, were incubated for 24, 48 and 72 h. WST-1 reactive of 10 µL was added to all wells. Following 4-h incubation, the measurements were taken on a plate reader (Spectramax M5) at wavelengths of 450 and 630 nm. Graphs were then created and the IC50 value of each substance was calculated.

[2] = system: HEK-293 (embryonic kidney epithelial cell); assay: WST-1 cytotoxicity, HEK-293; format: cell-based; conditions: normal cell
Experimental: as §1, §2

hCA IX = molecular target: hCA IX; set-up: method as in PMID 25913118, PMID 26803577; conditions: cited from earlier work
[3] = system: MDA-MB-231 (breast adenoma cancer cell); assay: WST-1 cytotoxicity, MDA-MB-231; format: cell-based, human
Experimental: as §1, §2

[4] = system: HT-29 (colon adenoma cancer); assay: WST-1 cytotoxicity, HT-29; format: cell-based, human
Experimental: as §1, §2

[5] = system: PNT-1A (normal prostate cells); assay: WST-1 cytotoxicity, PNT-1A; format: cell-based; conditions: normal cell
Experimental: as §1, §2

hCA XII = molecular target: hCA XII; set-up: method as in PMID 25913118, PMID 26803577; conditions: cited from earlier work
[6] = WST-1, 24 h, mean of three experiments, read-out: IC50 HeLa 24 h
[7] = WST-1, 48 h, read-out: IC50 HeLa 48 h
[8] = WST-1, 24 h, read-out: IC50 HEK-293 24 h
[9] = WST-1, 72 h, read-out: IC50 HEK-293 72 h
[10] = WST-1, 48 h, read-out: IC50 MDA-MB-231 48 h
[11] = WST-1, 72 h, read-out: IC50 MDA-MB-231 72 h
[12] = WST-1, 24 h, read-out: IC50 HT-29 24 h
[13] = WST-1, 48 h, read-out: IC50 HT-29 48 h
[14] = WST-1, 72 h, read-out: IC50 HT-29 72 h
[15] = WST-1, 72 h, read-out: IC50 HeLa 72 h
[16] = WST-1, 48 h, read-out: IC50 HEK-293 48 h
[17] = WST-1, 24 h, read-out: IC50 PNT-1A 24 h
[18] = WST-1, 48 h, read-out: IC50 PNT-1A 48 h
[19] = WST-1, 72 h, read-out: IC50 PNT-1A 72 h

| SMILES | IC50 [1, 6] [µM] | IC50 [1, 7] [µM] | IC50 [2, 8] [µM] | IC50 [2, 9] [µM] | Ki (hCA IX) [µM] | IC50 [3, 10] [µM] | IC50 [3, 11] [µM] | IC50 [4, 12] [µM] | IC50 [4, 13] [µM] | IC50 [4, 14] [µM] | IC50 [1, 15] [µM] | IC50 ([3]; WST-1, 24 h, read-out: IC50 MDA-MB-231 24 h) [µM] | IC50 [2, 16] [µM] | IC50 [5, 17] [µM] | IC50 [5, 18] [µM] | IC50 [5, 19] [µM] | Ki (hCA XII) [µM] |
| --- | --- | --- | --- | --- | --- | --- | --- | --- | --- | --- | --- | --- | --- | --- | --- | --- | --- |
| Cc1cccc(C=NCCc2ccc(S(N)(=O)=O)cc2)c1O [Compound 2] | 27.1 ± 1.3 | 49.6 ± 0.8 | 114 ± 3.44 | 75.2 ± 5.6 | 0.295 | – | – | – | – | – | – | – | – | – | – | – | – |
| Cc1cccc(C=Nc2ccc(S(N)(=O)=O)cc2)c1O [Compound 3] | 36.3 ± 0.2 | 29.8 ± 2.3 | 196 ± 14.3 | 37.9 ± 3.6 | 0.465 | 80.6 ± 12.4 | 96.7 ± 33.4 | – | – | – | – | – | – | – | – | – | – |
| Cc1ccc(C=NCCc2ccc(S(N)(=O)=O)cc2)cc1 [Compound 4] | – | – | – | 96.2 ± 12.2 | 0.123 | – | 178 ± 11.2 | 33 ± 2.3 | 23.7 ± 2.2 | 119 ± 23.2 | – | – | – | – | – | – | – |
| O=c1[nH]cc(F)c(=O)[nH]1 [Compound 5-FU, reference compound] | 37.8 ± 4.3 | 31.2 ± 2.3 | 44.6 ± 7.2 | 14.5 ± 3.2 | – | 37.9 ± 12.3 | 21 ± 4.3 | 47.3 ± 1.2 | 23.4 ± 2.1 | 19.3 ± 1.2 | 14.7 ± 0.6 | 42.6 ± 2.56 | 19.8 ± 2.3 | 23.1 ± 4.55 | 21.2 ± 2.2 | 17.5 ± 7.6 | – |
| Cc1ccc(C=Nc2ccc(S(N)(=O)=O)cc2)cc1 [Compound 5] | – | 182 ± 12.2 | – | 170 ± 11.2 | 0.0237 | 74.7 ± 12.4 | – | – | – | – | – | – | – | – | – | – | 0.0099 |
| COc1ccc(C=Nc2ccc(S(N)(=O)=O)cc2)cc1 [Compound 6] | – | 198 ± 14.3 | – | 100 ± 22.2 | 0.883 | – | – | – | – | 187 ± 23.4 | 123 ± 11.1 | – | – | 154 ± 16.5 | 120 ± 11.2 | 76.4 ± 13.3 | 0.0112 |
| COc1ccc(C=NCCc2ccc(S(N)(=O)=O)cc2)cc1 [Compound 7] | – | – | 120 ± 13.8 | 85.4 ± 11.2 | 0.231 | 123 ± 12.3 | 98.2 ± 11.2 | – | – | – | – | – | 98.3 ± 11.2 | – | 190 ± 8.6 | 130 ± 32.2 | – |

— article PMC6052416, “Selective inhibition of carbonic anhydrase-IX by sulphonamide derivatives induces pH and reactive oxygen species-mediated apoptosis in cervical cancer HeLa cells” (Journal of Enzyme Inhibition and Medicinal Chemistry, 2018)
